In patent US11571412B2, “Thromboxane receptor antagonists in AERD/asthma” (Cumberland Pharmaceuticals Inc., priority 2015, dated 2023):
Entries after “also recorded” stand apart in the source; their conditions may differ. Where two headings read alike, the source gives them in different places.

Experiments:
[1] = tested on: guinea pig trachea; settings: in vitro; cited from earlier work
[2] = tested on: TP receptor-induced bronchospasm; settings: guinea pigs; cited from earlier work
[3] = tested on: patients with a history of aspirin exacerbated respiratory disease (AERD); test: Multicenter, double-blind, randomized, placebo-controlled trial of oral ifetroban with aspirin challenge/desensitization (AERD Phase 2a); assay type: in vivo, human; settings: for Incidence of an AIR by Aspirin Dose: AIR population n = 10; for NIFR ≥25% decrease / NIFR ≥25% increase / TNSS ≥25% decrease / TNSS ≥25% increase: ifetroban 200 mg/day oral; for Rescue Medications Mean (SD): to resolve an AIR
Source text: Example IV is a multicenter, double-blind, randomized, placebo-controlled trial to determine the safety of oral ifetroban in patients with a history of aspirin exacerbated respiratory disease (AERD).
The eligible subjects were randomized (3:1 active to placebo) in this 7-day study which consisted of a screening, treatment and follow-up period. Any subject receiving at least a partial dose of IMP were not replaced and included in the study analysis. Of 19 subjects enrolled and randomized to study treatment, 14 (74%) were randomized to the ifetroban group and 5 (26%) to the placebo group. Of those 14 randomized to ifetroban, 12 (86%) subjects were treated and 100% of those treated completed treatment. Of 5 subjects randomized to placebo, 4 (80%) started treatment and 100% completed treatment. All treated subjects were analyzed for safety and efficacy variables.
All individuals with AERD will experience a clinical reaction to aspirin, most often at a dose of 81 mg or below. By utilizing a modified Scripps Institute protocol (Hope, Woessner, Simon, & Stevenson, 2009), limiting the study to individuals with stable asthma and no history of life-threatening reaction to COX inhibitors and administering the cysteinyl leukotriene receptor 1 (Cys-LT1) antagonist montelukast to all individuals undergoing the challenge/desensitization, the procedure could safely be done in an ambulatory/outpatient clinic setting. […] Thus, montelukast substantially increases the safety of aspirin challenge/desensitization and it is the standard of care to use montelukast as a pre-treatment for subjects with AERD undergoing a planned aspirin challenge/desensitization.
The primary objective of this study was to determine the safety of oral ifetroban compared to placebo as measured by a ≥20% decrease in Forced Expiratory Volume in 1 second (FEV1) compared to baseline following a dose of Investigational Medicinal Product (IMP) (Study Day 1) or following a dose of IMP but prior to initiation of the aspirin challenge. Secondary objectives were: (i) to determine the safety of oral ifetroban compared to placebo as measured by peak Nasal Inspiratory Flow Rate (NIFR) compared to baseline following a dose of IMP (Study Day 1) or following a dose of IMP but prior to initiation of the aspirin challenge; (ii) to determine the safety of oral ifetroban compared to placebo as measured by the change in Total Nasal Symptom Score (TNSS) compared to baseline following a dose of IMP (Study Day 1) or following a dose of IMP but prior to initiation of the aspirin challenge; (iii) to determine the safety and tolerability of oral ifetroban compared to placebo as measured by treatment-emergent adverse events; (iv) to determine the efficacy of oral ifetroban compared to placebo in decreasing the respiratory reaction to oral aspirin as measured by the change in FEV1 compared to baseline during the aspirin challenge; (v) to determine the efficacy of oral ifetroban compared to placebo in decreasing the respiratory reaction to oral aspirin as measured by the change in NIFR compared to baseline during the aspirin challenge; (vi) to determine the efficacy of oral ifetroban compared to placebo in decreasing the respiratory reaction to oral aspirin as measured by the change in TNSS compared to baseline during the aspirin challenge; (vii) to determine the efficacy of oral ifetroban compared to placebo in decreasing the respiratory reaction to oral aspirin as measured by the amount of rescue medication during the aspirin challenge; (viii) to determine the efficacy of oral ifetroban compared to placebo in decreasing respiratory sensitivity to COX-1 inhibition as measured by the aspirin desensitization dose level; and (ix) to determine the efficacy of oral ifetroban compared to placebo as measured by the number of asthmatic reactions during the Treatment Period. […]

[4] = tested on: TP receptor-induced bronchospasm; settings: rats; cited from earlier work
[5] = tested on: Df-treated ptges−/− mice; settings: cited from earlier work; for Reaction to aspirin (peak change in RL in response to Lys-ASA challenge): two doses of antagonist prior to challenge with Lys-ASA
[6] = target: CYP3A4 (Homo sapiens, UniProt P08684); settings: cited from earlier work
CYP3A4, sequence (P08684 whole entry): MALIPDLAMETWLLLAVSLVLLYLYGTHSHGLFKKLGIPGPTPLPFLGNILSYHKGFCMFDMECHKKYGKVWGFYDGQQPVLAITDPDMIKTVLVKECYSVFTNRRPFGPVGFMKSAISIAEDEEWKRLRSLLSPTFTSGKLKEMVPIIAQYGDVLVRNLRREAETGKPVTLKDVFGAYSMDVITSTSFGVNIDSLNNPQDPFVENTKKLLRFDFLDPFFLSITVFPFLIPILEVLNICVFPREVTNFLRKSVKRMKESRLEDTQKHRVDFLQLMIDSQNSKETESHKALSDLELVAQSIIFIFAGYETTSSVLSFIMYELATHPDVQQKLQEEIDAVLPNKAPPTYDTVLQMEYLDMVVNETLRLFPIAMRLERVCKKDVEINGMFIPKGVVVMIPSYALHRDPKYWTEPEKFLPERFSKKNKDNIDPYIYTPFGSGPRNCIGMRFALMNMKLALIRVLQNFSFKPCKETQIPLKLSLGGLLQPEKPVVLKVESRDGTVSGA

[7] = target: CYP2C9 (Homo sapiens, UniProt P11712); settings: cited from earlier work
CYP2C9, sequence (P11712 whole entry): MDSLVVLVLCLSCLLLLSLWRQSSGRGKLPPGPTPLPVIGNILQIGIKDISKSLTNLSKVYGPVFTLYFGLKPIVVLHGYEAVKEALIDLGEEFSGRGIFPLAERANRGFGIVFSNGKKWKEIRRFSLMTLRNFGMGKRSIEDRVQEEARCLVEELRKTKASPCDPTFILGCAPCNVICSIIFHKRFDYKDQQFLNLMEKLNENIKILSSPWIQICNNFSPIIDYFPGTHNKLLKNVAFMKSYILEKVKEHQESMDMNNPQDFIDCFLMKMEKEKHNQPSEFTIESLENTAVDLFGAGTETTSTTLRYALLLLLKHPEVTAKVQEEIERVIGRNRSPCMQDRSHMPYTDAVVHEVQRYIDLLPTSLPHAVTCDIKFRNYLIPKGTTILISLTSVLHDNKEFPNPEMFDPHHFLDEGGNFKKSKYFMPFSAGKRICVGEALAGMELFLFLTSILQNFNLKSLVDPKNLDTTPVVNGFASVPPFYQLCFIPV

[8] = Phase A, n = 12, listed as ifetroban
[9] = Phase B (aspirin challenge), n = 12
[10] = aspirin desensitization, n = 12
[11] = column headed Phase C (overall, during the study), n = 12
[12] = subjects that experienced an AIR
[13] = subjects that experienced an AIR, listed as ifetroban

## CCCCCNC(=O)c1coc([C@H]2[C@@H](Cc3ccccc3CCC(=O)O)[C@@H]3CC[C@H]2O3)n1 [Ifetroban, [1S-(1α,2α,3α,4α)]-2-[[3-[4-[(Pentylamino)carbonyl]-2-oxazolyl]-7-oxabicyclo[2.2.1]hept-2-yl]methyl]-benzenepropanoic acid]
[1]
  Contraction of guinea pig trachea elicited by PGD2: inhibit contraction
[2]
  TP receptor-induced bronchospasm: both preempt and reverse
[3]; 7.33 (placebo) versus 2.90 (ifetroban) to resolve an AIR
  Difference in mean rescue medications, placebo versus ifetroban: 2.5 fold
[3]; AIR subjects n = 10
  Severity of an AIR: All Symptoms (total number): 43
[3]; Aspirin Dose 30 mg
  Incidence of an AIR by Aspirin Dose: 0 No. of Subjects (%)
[3]; Aspirin Dose 60 mg
  Incidence of an AIR by Aspirin Dose: 5 (50) No. of Subjects (%)
[3]; Aspirin Dose 100 mg
  Incidence of an AIR by Aspirin Dose: 5 (50) No. of Subjects (%)
[3]; Aspirin Dose 150 mg
  Incidence of an AIR by Aspirin Dose: 0 No. of Subjects (%)
[3]; Aspirin Dose 325 mg
  Incidence of an AIR by Aspirin Dose: 0 No. of Subjects (%)
[3]; Phase A, n = 12
  NIFR ≥25% decrease: 2(17) No. of Subjects (%)
  NIFR ≥25% increase: 3(25) No. of Subjects (%)
  TNSS ≥25% decrease: 1(8) No. of Subjects (%)
  TNSS ≥25% increase: 0 No. of Subjects (%)
[3]; [8]
  TNSS ≥25% decrease: 1 (8%) No. of Subjects (%)
  TNSS ≥25% increase: No subject
[3]; [9]
  NIFR ≥25% decrease: 4(33) No. of Subjects (%)
  NIFR ≥25% increase: 7(58) No. of Subjects (%)
  TNSS ≥25% decrease: 2(17) No. of Subjects (%)
  TNSS ≥25% increase: 3(25) No. of Subjects (%)
[3]; Phase B (aspirin challenge), n = 12, listed as ifetroban
  TNSS ≥25% decrease: 2 (17%) No. of Subjects (%)
[3]; aspirin challenge
  Average number of symptoms per AIR compared to placebo: comparable between treatment groups
  Bronchial reaction (<20% decrease in FEV1, wheezing, chest tightness) as part of the AIR compared to placebo: at a similar rate
  Ocular manifestation compared to placebo: seems to trend toward the placebo arm more often than on the ifetroban arm
  Upper respiratory effect (rhinorrhea, nasal obstruction, sneezing) compared to placebo: equally as common between treatment groups
[3]; aspirin challenge (phase B)
  Number of rescue medications compared to placebo (trend): apparent trend toward fewer rescue medications in favor of the ifetroban group
  Total Number of Rescue Medications: 29
[3]; [10]
  Aspirin-induced Reaction (AIR): No: 2 (17) No. of Subjects (%)
  Aspirin-induced Reaction (AIR): Yes: 10 (83) No. of Subjects (%)
[3]; between treatment groups
  Proportion of subjects with worsening NIFR or TNSS compared to placebo: no clear trends were observed; also recorded: no appreciable difference was observed
[3]; [11]
  NIFR ≥25% decrease: 5(42) No. of Subjects (%)
  NIFR ≥25% increase: 9(75) No. of Subjects (%)
  TNSS ≥25% decrease: 2(17) No. of Subjects (%)
  TNSS ≥25% increase: 3(25) No. of Subjects (%)
[3]; column headed Phase C (overall, during the study), n = 12, listed as ifetroban
  NIFR ≥25% increase: 9 (75%) No. of Subjects (%)
[3]; during IMP treatment or the aspirin desensitization process, 200 mg/day
  ≥20% decrease in FEV1 (primary endpoint): did not cause a ≥20% decrease in FEV1
[3]; during both phase A and phase B
  Subjects with ≥25% decrease in peak NIFR during both phase A and phase B: One
[3]; during phase A and phase B
  Improvements to NIFR and TNSS compared to placebo: observed trend in favor of the ifetroban group toward greater improvements
[3]; during the study
  Subjects with ≥50% or 75% increase or decrease in TNSS: No one
[3]; ifetroban at 200 mg/day
  AEs reported compared to placebo: no increase in AEs
[3]; ifetroban at 200 mg/day, subjects with a history of AERD
  Safety and tolerability: well tolerated and safe
[3]; ifetroban at a dose of 200 mg/day
  Symptoms of aspirin desensitization in AERD patients: may be diminished
[3]; n = 10
  Severity of an AIR: <20% decrease in FEVI (number): 9
  Severity of an AIR: <20% decrease in FEVI Mean: 0.9
  Severity of an AIR: All Symptoms Median: 4
  Severity of an AIR: All Symptoms Min, Max: 3.7
  Severity of an AIR: Lower Respiratory (number of symptoms): 13
  Severity of an AIR: Lower Respiratory Mean: 1.3
  Severity of an AIR: Ocular (number of symptoms): 5
  Severity of an AIR: Ocular Mean: 0.5
  Severity of an AIR: Upper Respiratory (number of symptoms): 25
  Severity of an AIR: Upper Respiratory Mean: 2.5
[3]; per AIR, n = 10
  Severity of an AIR: All Symptoms Mean(SD): 4.3(1.34)
[3]; phase A prior to aspirin initiation
  Asthmatic reactions reported or rescue medications used: No asthmatic reactions were reported or rescue medications used
[3]; provoking aspirin dose 60 mg
  Initial reactions occurring at the 60-mg aspirin dose: 50%
[3]; [12]
  Required Rescue Medication: No: 1 (10) No. of Subjects (%)
  Required Rescue Medication: Yes: 9 (90) No. of Subjects (%)
  Rescue Medications Max: 7
  Rescue Medications Median: 3
  Rescue Medications Min: 0
  Rescue Medications Mean (SD): 2.90 (2.02)
[3]; [13]
  Required Rescue Medication: No: 1 (10%) No. of Subjects (%)
  Rescue Medications Mean (SD): 2.90
[3]; throughout the 7-day study period
  Rescue medication outside the clinic for an asthmatic reaction: no subject required rescue medication outside the clinic
[3]; throughout the treatment period
  Mean changes from baseline FEV1: below 20%
[4]
  TP receptor-induced bronchospasm: both preempt and reverse

## CC(c1ccccc1)C(O)/C=C/C1C2CCC(O2)C1C/C=C\CCCC(=O)O (stereo not drawn) [[1S-(1α, 2α(Z), 3α(1E, 3S*, 4R*), 4α)]]-7-[3-(3-hydroxy-4-phenyl-1-pentenyl)-7-oxabicyclo[2.2.1]hept-2-yl]-5-heptenoic acid]
[5]; ptges−/− mice, Lys-ASA challenge
  Rise in cys-LTs (BAL fluid): completely blocked
[5]; ptges−/− mice
  Reaction to aspirin (peak change in RL in response to Lys-ASA challenge): completely blocked
[5]; ptges−/− mice, listed as SQ29.548
  Reaction to aspirin (peak change in RL in response to Lys-ASA challenge): attenuates aspirin sensitivity

## CC(C)(O)c1ccccc1CC[C@@H](SCC1(CC(=O)O)CC1)c1cccc(/C=C/c2ccc3ccc(Cl)cc3n2)c1 [montelukast]
[6]
  Inhibition of CYP3A4: does not inhibit
[7]
  Inhibition of CYP2C9: does not inhibit

## CC(c1cc2ccccc2s1)N(O)C(N)=O (centres unmarked) [zileuton]
[5]; Df-treated ptges−/− mice
  Increase in airway resistance on inhalation of Lysine aspirin: sensitive to interference
